SMILES strings stand for the structures.

Holding throughout (format): cell-based
In test [1] the target is T1, von Hippel-Lindau disease tumor suppressor/Receptor-interacting serine/threonine-protein kinase 2 (Homo sapiens, UniProt O43353+P40337). The test is described as follows: PROTAC activity at VHL/RIPK2 in human THP-1 cells assessed as RIPK2 degradation by measuring maximal efficacy at 10 nM measured after 16 hrs by Western blot analysis relative to control. (In general: A western blot detects proteins with antibodies after separation by electrophoresis.)
Target sequence in this assay (O43353 whole entry, looked up): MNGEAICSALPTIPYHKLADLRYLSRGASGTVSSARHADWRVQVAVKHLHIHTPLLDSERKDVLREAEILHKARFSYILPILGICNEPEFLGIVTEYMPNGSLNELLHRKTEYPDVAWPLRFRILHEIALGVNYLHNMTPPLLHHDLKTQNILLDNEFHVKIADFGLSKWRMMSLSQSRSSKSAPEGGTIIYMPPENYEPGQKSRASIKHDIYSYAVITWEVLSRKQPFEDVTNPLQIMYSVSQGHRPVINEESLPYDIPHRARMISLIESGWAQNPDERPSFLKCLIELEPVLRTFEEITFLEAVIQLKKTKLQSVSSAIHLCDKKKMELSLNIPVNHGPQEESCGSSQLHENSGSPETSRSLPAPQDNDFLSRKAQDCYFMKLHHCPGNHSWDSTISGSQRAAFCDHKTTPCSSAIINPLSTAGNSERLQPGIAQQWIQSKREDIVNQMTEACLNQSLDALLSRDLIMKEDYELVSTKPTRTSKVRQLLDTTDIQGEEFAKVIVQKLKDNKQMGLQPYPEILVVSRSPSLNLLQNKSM
Target sequence in this assay (P40337 whole entry, looked up): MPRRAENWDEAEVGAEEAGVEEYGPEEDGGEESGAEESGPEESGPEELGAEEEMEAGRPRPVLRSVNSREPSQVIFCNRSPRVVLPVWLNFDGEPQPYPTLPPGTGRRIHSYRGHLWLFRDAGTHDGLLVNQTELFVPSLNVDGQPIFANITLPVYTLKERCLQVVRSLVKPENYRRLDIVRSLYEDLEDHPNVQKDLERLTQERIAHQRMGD

For test [2], the target named is Protein cereblon/Non-receptor tyrosine-protein kinase TYK2 (Homo sapiens, UniProt P29597+Q96SW2). The test is described as follows: PROTAC activity at CRBN/TYK2 in HEL cells assessed as TYK2 degradation incubated for 24 hrs by Western blotting analysis.
In test [3] the target is T1, von Hippel-Lindau disease tumor suppressor/Receptor-interacting serine/threonine-protein kinase 2. The test is described as follows: PROTAC activity at VHL/RIPK2 in human THP-1 cells assessed as RIPK2 degradation measured after 16 hrs by Western blot analysis.
Target sequence in this assay (O43353 whole entry): as the sequence (O43353 whole entry, looked up) above
Target sequence in this assay (P40337 whole entry): as the sequence (P40337 whole entry, looked up) above
Test [4] has as its target T2, Protein cereblon/Tyrosine-protein kinase BTK (Homo sapiens, UniProt Q06187+Q96SW2). The test is described as follows: PROTAC activity at CRBN/BTK in human Ramos cells assessed as induction of protein degradation by measuring maximal efficacy at 10 uM relative to control.
Target sequence in this assay (Q06187 2-659 limits assumed): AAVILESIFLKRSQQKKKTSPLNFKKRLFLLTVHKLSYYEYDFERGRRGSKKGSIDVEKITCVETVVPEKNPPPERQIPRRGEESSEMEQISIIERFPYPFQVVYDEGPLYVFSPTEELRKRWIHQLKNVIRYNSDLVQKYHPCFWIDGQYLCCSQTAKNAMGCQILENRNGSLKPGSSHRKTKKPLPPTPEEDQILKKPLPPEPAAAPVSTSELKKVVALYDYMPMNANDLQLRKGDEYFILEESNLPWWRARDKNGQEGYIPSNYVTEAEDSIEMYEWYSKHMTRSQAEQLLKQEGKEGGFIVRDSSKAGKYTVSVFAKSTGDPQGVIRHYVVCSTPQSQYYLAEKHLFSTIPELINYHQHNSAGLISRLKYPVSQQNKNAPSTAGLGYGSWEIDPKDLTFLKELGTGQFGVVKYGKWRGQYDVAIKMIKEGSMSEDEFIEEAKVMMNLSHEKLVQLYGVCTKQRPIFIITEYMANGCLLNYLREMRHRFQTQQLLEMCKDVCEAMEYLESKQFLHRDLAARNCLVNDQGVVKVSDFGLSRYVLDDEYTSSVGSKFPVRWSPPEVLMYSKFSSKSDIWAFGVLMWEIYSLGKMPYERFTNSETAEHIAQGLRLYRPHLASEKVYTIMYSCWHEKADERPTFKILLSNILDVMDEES
Target sequence in this assay (Q96SW2 whole entry partner): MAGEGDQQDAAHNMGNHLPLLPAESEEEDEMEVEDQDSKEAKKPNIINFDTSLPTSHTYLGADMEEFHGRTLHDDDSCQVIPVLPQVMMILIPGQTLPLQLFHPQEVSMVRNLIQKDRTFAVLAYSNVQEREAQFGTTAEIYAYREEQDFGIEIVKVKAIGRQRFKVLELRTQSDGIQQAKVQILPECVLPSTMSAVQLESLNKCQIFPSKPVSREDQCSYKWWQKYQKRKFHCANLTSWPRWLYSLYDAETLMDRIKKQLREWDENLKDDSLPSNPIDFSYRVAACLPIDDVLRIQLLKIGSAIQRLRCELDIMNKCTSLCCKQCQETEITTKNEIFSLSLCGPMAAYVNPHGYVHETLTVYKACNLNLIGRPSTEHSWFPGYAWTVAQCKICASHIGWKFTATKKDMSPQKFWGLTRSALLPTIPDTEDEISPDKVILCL
Test [5] concerns the target T2, Protein cereblon/Tyrosine-protein kinase BTK. The test is described as follows: PROTAC activity at CRBN/BTK in human Ramos cells assessed as protein degradation.
Target sequence in this assay (Q06187 whole entry): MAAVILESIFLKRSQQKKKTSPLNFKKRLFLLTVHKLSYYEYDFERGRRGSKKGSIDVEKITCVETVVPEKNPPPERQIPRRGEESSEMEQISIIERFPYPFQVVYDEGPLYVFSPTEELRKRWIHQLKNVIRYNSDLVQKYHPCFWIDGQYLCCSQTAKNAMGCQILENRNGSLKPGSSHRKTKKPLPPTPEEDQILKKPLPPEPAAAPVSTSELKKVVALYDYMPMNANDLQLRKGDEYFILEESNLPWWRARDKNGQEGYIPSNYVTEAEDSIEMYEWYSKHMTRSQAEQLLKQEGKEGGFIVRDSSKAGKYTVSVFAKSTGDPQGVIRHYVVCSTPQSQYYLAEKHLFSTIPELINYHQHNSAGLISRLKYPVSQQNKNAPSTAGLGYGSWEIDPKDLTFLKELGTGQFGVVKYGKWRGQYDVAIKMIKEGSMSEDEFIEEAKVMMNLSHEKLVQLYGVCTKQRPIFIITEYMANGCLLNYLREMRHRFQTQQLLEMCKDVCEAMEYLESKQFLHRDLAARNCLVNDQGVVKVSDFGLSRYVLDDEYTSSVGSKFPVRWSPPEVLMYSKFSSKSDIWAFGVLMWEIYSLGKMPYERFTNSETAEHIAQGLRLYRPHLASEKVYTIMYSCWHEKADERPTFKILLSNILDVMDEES
Target sequence in this assay (Q96SW2 whole entry): as the sequence (Q96SW2 whole entry partner) above
Test [6] has as its target T3, Protein cereblon/Interleukin-1 receptor-associated kinase 4 (Homo sapiens, UniProt Q9NWZ3+Q96SW2). The test is described as follows: PROTAC activity at CRBN/IRAK4 in human HEK293T cells assessed as induction of protein degradation by measuring maximal efficacy at 10 uM measured after 24 hrs by immunoblotting analysis relative to control.
Target sequence in this assay (Q96SW2 whole entry, looked up): as the sequence (Q96SW2 whole entry partner) above
Target sequence in this assay (Q9NWZ3 whole entry, looked up): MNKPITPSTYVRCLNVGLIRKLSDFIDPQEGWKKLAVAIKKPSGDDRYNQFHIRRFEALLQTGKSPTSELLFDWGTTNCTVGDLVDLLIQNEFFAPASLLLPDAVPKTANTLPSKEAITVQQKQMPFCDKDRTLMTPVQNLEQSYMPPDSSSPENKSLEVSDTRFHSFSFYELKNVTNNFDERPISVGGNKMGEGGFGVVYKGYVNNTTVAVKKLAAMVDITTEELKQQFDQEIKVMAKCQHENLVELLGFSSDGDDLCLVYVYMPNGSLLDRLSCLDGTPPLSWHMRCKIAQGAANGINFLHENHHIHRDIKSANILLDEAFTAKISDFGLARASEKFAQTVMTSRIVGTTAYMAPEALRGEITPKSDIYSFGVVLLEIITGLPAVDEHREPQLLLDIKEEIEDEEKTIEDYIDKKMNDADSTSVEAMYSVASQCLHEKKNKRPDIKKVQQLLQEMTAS
The target of test [7] is T4, von Hippel-Lindau disease tumor suppressor/Mitogen-activated protein kinase 14 (Homo sapiens, UniProt Q16539+P40337). The test is described as follows: PROTAC activity at VHL/p38alpha in human THP-1 cells assessed as induction of protein degradation by measuring maximal efficacy at 10 uM incubated for 16 hrs by Western blot analysis relative to control.
Target sequence in this assay (P40337 whole entry partner): as the sequence (P40337 whole entry, looked up) above
Target sequence in this assay (Q16539 2-360 limits assumed): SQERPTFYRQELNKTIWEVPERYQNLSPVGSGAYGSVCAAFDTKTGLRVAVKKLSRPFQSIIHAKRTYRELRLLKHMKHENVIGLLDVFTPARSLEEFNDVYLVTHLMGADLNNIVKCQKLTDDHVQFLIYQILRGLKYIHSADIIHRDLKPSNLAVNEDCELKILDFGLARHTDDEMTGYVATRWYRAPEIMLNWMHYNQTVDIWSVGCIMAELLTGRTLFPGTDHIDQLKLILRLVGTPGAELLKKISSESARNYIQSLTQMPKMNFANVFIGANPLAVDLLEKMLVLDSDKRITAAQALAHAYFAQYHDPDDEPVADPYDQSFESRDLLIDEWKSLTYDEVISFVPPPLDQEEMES
The target in test [8] is T4, von Hippel-Lindau disease tumor suppressor/Mitogen-activated protein kinase 14. The test is described as follows: PROTAC activity at VHL/p38alpha in human THP-1 cells assessed as MAPK degradation incubated for 16 hrs by Western blot analysis.
Target sequence in this assay (Q16539 whole entry): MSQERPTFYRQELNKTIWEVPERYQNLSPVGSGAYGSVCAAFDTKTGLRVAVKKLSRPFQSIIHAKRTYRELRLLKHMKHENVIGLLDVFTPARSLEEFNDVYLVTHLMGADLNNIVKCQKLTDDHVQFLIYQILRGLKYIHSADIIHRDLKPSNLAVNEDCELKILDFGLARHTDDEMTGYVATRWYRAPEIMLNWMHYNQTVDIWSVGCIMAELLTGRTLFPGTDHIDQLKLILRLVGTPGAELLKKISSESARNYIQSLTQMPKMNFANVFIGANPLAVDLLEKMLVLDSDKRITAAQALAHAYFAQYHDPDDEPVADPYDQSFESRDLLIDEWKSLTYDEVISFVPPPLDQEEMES
Target sequence in this assay (P40337 whole entry): as the sequence (P40337 whole entry, looked up) above
For test [9], the target named is T5, von Hippel-Lindau disease tumor suppressor/Interleukin-1 receptor-associated kinase 4 (Homo sapiens, UniProt Q9NWZ3+P40337). Nature of the test: PROTAC activity at VHL E3 ligase/IRAK4 in human PBMC cells assessed as induction of degradation of IRAK4 incubated overnight by immunoblot analysis.
Target sequence in this assay (Q9NWZ3 whole entry): as the sequence (Q9NWZ3 whole entry, looked up) above
Target sequence in this assay (P40337 whole entry): as the sequence (P40337 whole entry, looked up) above
The nature of test [10]: PROTAC activity at VHL/human p38alpha in MDA-MB-231 cells assessed as p38alpha degradation.
Test [11] concerns the target T2, Protein cereblon/Tyrosine-protein kinase BTK. Nature of the test: PROTAC activity at CRBN/BTK in human Huh-7 cells assessed as protein degradation.
Target sequence in this assay (Q06187 whole entry): as the sequence (Q06187 whole entry) above
Target sequence in this assay (Q96SW2 whole entry): as the sequence (Q96SW2 whole entry partner) above
In test [12] the target is T3, Protein cereblon/Interleukin-1 receptor-associated kinase 4. The test is described as follows: PROTAC activity at CRBN/IRAK4 in human KARPAS-299 cells assessed as induction of IRAK4 degradation.
Target sequence in this assay (Q9NWZ3 whole entry): as the sequence (Q9NWZ3 whole entry, looked up) above
Target sequence in this assay (Q96SW2 whole entry): as the sequence (Q96SW2 whole entry partner) above
The target is the same in test [13]. The test is described as follows: PROTAC activity at CRBN/IRAK4 in human PBMC cells assessed as induction of degradation measured after 24 hrs by Immuno-blotting analysis.
Target sequence in this assay (Q9NWZ3 whole entry): as the sequence (Q9NWZ3 whole entry, looked up) above
Target sequence in this assay (Q96SW2 whole entry): as the sequence (Q96SW2 whole entry partner) above
Test [14] addresses T5, von Hippel-Lindau disease tumor suppressor/Interleukin-1 receptor-associated kinase 4. Nature of the test: PROTAC activity at VHL E3 ligase/IRAK4 in human PBMC cells assessed as induction of degradation of IRAK4 incubated for 16 hrs by immunoblot analysis relative to control.
Target sequence in this assay (P40337 whole entry, looked up): as the sequence (P40337 whole entry, looked up) above
Target sequence in this assay (Q9NWZ3 whole entry, looked up): as the sequence (Q9NWZ3 whole entry, looked up) above

`Cc1ncsc1-c1ccc(CNC(=O)[C@@H]2C[C@@H](O)CN2C(=O)[C@@H](NC(=O)COCCOCCOCCOCCOc2cc3nccc(Nc4ccc5scnc5c4)c3cc2S(=O)(=O)C(C)(C)C)C(C)(C)C)cc1`: the Emax (commonly the size of the effect at its maximum, as opposed to the concentration needed) in test [1] is 95%.
For `CNC(=O)c1cnc(Nc2ccc(C(=O)NCCCCCCCCCC(=O)N[C@H](C(=O)N3C[C@H](O)C[C@H]3C(=O)NCc3ccc(-c4scnc4C)cc3)C(C)(C)C)cn2)cc1Nc1cccc(-c2ncn(C)n2)c1OC`, the DC50 – broadly, the concentration giving 50% degradation – in test [2] worked out at 14 nM.
For the compound `CN[C@@H](C)C(=O)N[C@H](C(=O)N1CCC[C@H]1c1nc(C(=O)c2ccc(F)cc2)cs1)C1CCN(C(=O)c2cnc(N3CCN(CCOc4cc5ncnc(Nc6n[nH]c(C)c6C)c5cc4S(=O)(=O)C(C)(C)C)CC3)nc2)CC1`, in test [1], the maximal response (Emax) amounted to 94.3%. In test [3], the DC50 is 9.4 nM.
On to `CN[C@H](C)C(=O)N[C@@H](C(=O)N1C[C@H](NC(=O)c2cnc(N3CCN(CCCOc4cc5ncnc(Nc6n[nH]c(C)c6C)c5cc4S(=O)(=O)C(C)(C)C)CC3)cn2)C[C@@H]1C(=O)Nc1c(F)cccc1F)C(C)(C)C`, for which the Emax in test [1] came out at 90%.
Consider `Nc1ncnc2c1c(-c1ccc(Oc3ccccc3)cc1)nn2C1CCN(C(=O)CN2CCN(CC3CN(c4ccc5c(c4)C(=O)N(C4CCC(=O)NC4=O)C5=O)C3)CC2)CC1` (centres undefined), for which the maximal effect (Emax) in test [4] turned out to be 99.9%. The DC50 in test [5] worked out at 3.18 nM.
Regarding `CC(C)Nc1cc(-n2ccc3cc(C#N)cnc32)ncc1C(=O)N[C@H]1CC[C@H](C(=O)NCCOCCNC(=O)COc2cccc3c2C(=O)N(C2CCC(=O)NC2=O)C3=O)CC1` (some centres undefined), in [6], the Emax is 90%.
In the case of `COc1cc2c(Oc3ccc(NC(=O)C4(C(=O)Nc5ccc(F)cc5)CC4)cc3F)ccnc2cc1OCCOCCOCCOc1cc(-c2scnc2C)ccc1CNC(=O)[C@@H]1C[C@@H](O)CN1C(=O)[C@H](C(C)C)N1Cc2ccccc2C1=O`, in test [7], the Emax turned out to be 99.4%. In addition, the half-maximal degradation concentration (DC50) in [8] came to 46.2 nM.
Turning to `O=C(/C=C/C(=O)Nc1ccc(NC(=O)c2ccc([N+](=O)[O-])o2)cc1)NCCCCCCNc1cccc2c1C(=O)N(C1CCC(=O)NC1=O)C2=O` (centres undefined), in test [9], the DC50 stood at 3.2 nM.
`Cc1ccc(C(=O)NCCCCc2cn(CCCC(=O)NCCCCCCc3cccc4c3CN(C3CCC(=O)NC3=O)C4=O)nn2)cc1-n1c(C)cc(OCc2ccc(F)cc2F)c(Br)c1=O` (centres undefined): in [10], the DC50 was determined as 19.1 nM.
For `COc1cc(C)c(Sc2cnc(NC(=O)c3ccc(N4CCN(CCCCCCCNC(=O)COc5cccc6c5C(=O)N(C5CCC(=O)NC5=O)C6=O)CC4)cc3)s2)cc1C(=O)N1CCN(C(C)=O)CC1` (centres undefined), the DC50 in [11] was found to be 17 nM.
Regarding `O=C1CCC(N2C(=O)c3cccc(N4CCN(C(=O)C5CCN(c6ccc(NC(=O)c7cnc(Oc8ccccc8)nc7)cc6)CC5)CC4)c3C2=O)C(=O)N1` (centres undefined), the DC50 in test [12] is 17.3 nM.
On to `CC[C@@H]1[C@H](F)C(=O)N[C@@H]1COc1ncc(C#CCN2CCC3(CC2)CCN(c2ncc(C(=O)N[C@H](C(=O)N4C[C@H](O)C[C@H]4C(=O)NCc4ccc(-c5scnc5C)cc4)C(C)(C)C)cn2)CC3)c2cc(C(N)=O)c(OC)cc12`, for which the DC50 in test [13] was 151 nM.
On to `Cc1ccc(C(=O)NCCCCc2cn(CCCC(=O)NCCCCNc3cccc4c3C(=O)N(C3CCC(=O)NC3=O)C4=O)nn2)cc1-n1c(C)cc(OCc2ccc(F)cc2F)c(Br)c1=O` (centres undefined), for which the DC50 in test [10] amounted to 48.9 nM.
On to `CCn1nc(C)cc1C(=O)Nc1nc2cc(C(=O)NCCCCCCCCC(=O)N[C@H](C(=O)N3C[C@H](O)C[C@H]3C(=O)NCc3ccc(-c4scnc4C)cc3)C(C)(C)C)cc(OC)c2n1C/C=C/Cn1c(NC(=O)c2cc(C)nn2CC)nc2cc(C(N)=O)cc(OCCCN3CCOCC3)c21`, for which, in test [14], the Emax stood at 91.7%. Further, the DC50 in [9] worked out at 227 nM.
As for `COc1cc2c(Oc3ccc(NC(=O)C4(C(=O)Nc5ccc(F)cc5)CC4)cc3F)ccnc2cc1OCCCCOCCCCOCC(=O)N[C@H](C(=O)N1C[C@H](O)C[C@H]1C(=O)NCc1ccc(-c2scnc2C)cc1)C(C)(C)C`, in test [7], the Emax came out at 97.4%.
